The results in this text go back to PMC7034945 (RSC Advances, 2019).

In general, EC50 refers to the concentration giving half of the maximal effect. Higher therefore signals weaker potency.

This assay deals with HIV-1 NL4-3 virus. Put plainly: Anti-HIV-1 activity, multicycle assay with HIV-1 NL4-3 in TZM-bl cells. The assay is classed as cell-based. To be noted: for EC50: Human immunodeficiency virus 1, NL43, TZM-bl; for SI (selectivity index, ratio of CC50/EC50) / anti-HIV-1 activity (in words): TZM-bl cells; for anti-HIV-1 activity (in words): at the test concentration.

Molecules are shown by their SMILES.

`COc1ccc(N(C)C(=O)[C@H](Cc2cc(F)cc(F)c2)NC(=O)c2cn(Cc3cccc(C#N)c3)nn2)cc1` [I-8h, (S)-1-(3-Cyanobenzyl)-N-(3-(3,5-difluorophenyl)-1-((4-methoxyphenyl)(methyl)amino)-1-oxopropan-2-yl)-1H-1,2,3-triazole-4-carboxamide] registered an EC50 of 3.58 ± 0.64 µM. The “SI (selectivity index, ratio of CC50/EC50)” value (Table 1) is on record as above 5.27.

With `CCOC(=O)Cn1cc(-c2cccc(C(=O)N[C@@H](Cc3cc(F)cc(F)c3)C(=O)N(C)c3ccc(OC)cc3)c2)nn1` [II-10m, Ethyl (S)-2-(4-(3-((3-(3,5-difluorophenyl)-1-((4-methoxyphenyl)(methyl)amino)-1-oxopropan-2-yl)carbamoyl)phenyl)-1H-1,2,3-triazol-1-yl)acetate], the “anti-HIV-1 activity (in words)” value is reported as “lost anti-HIV-1 activity completely”.

For `COc1ccc(N(C)C(=O)[C@H](Cc2cc(F)cc(F)c2)NC(=O)c2cn(Cc3ccc4ccccc4c3)nn2)cc1` [I-8n, (S)-N-(3-(3,5-Difluorophenyl)-1-((4-methoxyphenyl)(methyl)amino)-1-oxopropan-2-yl)-1-(naphthalen-2-ylmethyl)-1H-1,2,3-triazole-4-carboxamide], it took 14.6 ± 2.34 µM to reach a half-maximal effect (EC50). For the same compound, the “SI (selectivity index, ratio of CC50/EC50)” value (Table 1) is reported as above 1.23.

As for `COc1ccc(N(C)C(=O)[C@H](Cc2cc(F)cc(F)c2)NC(=O)c2cn(Cc3ccc([N+](=O)[O-])cc3)nn2)cc1` [I-8l, (S)-N-(3-(3,5-Difluorophenyl)-1-((4-methoxyphenyl)(methyl)amino)-1-oxopropan-2-yl)-1-(4-nitrobenzyl)-1H-1,2,3-triazole-4-carboxamide], the concentration for a half-maximal effect (EC50) was determined as 9.26 ± 2.54 µM. Further, under “Table 1”, the “SI (selectivity index, ratio of CC50/EC50)” value is listed as above 1.96.

In the case of `COc1ccc(N(C)C(=O)[C@H](Cc2cc(F)cc(F)c2)NC(=O)c2cn(Cc3ccccc3Cl)nn2)cc1` [I-8d, (S)-1-(2-Chlorobenzyl)-N-(3-(3,5-difluorophenyl)-1-((4-methoxyphenyl)(methyl)amino)-1-oxopropan-2-yl)-1H-1,2,3-triazole-4-carboxamide], a half-maximal effect (EC50) was put at 9.63 ± 2.04 µM. In addition, the “SI (selectivity index, ratio of CC50/EC50)” value (Table 1) is given as above 1.92.

As for `COc1ccc(N(C)C(=O)[C@H](Cc2ccccc2)NC(=O)c2cccc(-c3cn(CC(=O)Nc4ccccc4)nn3)c2)cc1` [III-15e, (S)-N-(1-((4-Methoxyphenyl)(methyl)amino)-1-oxo-3-phenylpropan-2-yl)-3-(1-(2-oxo-2-(phenylamino)ethyl)-1H-1,2,3-triazol-4-yl)benzamide], the EC50 is above 34 µM.

`COc1ccc(N(C)C(=O)[C@H](Cc2cc(F)cc(F)c2)NC(=O)c2cccc(-c3cn(Cc4cccc5ccccc45)nn3)c2)cc1` [II-10k, (S)-N-(3-(3,5-Difluorophenyl)-1-((4-methoxyphenyl)(methyl)amino)-1-oxopropan-2-yl)-3-(1-(naphthalen-1-ylmethyl)-1H-1,2,3-triazol-4-yl)benzamide] registered a half-maximal effective concentration (EC50) above 31.7 µM.

For `COc1ccc(N(C)C(=O)[C@H](Cc2cc(F)cc(F)c2)NC(=O)c2cn(Cc3cccc(C)c3)nn2)cc1` [I-8b, (S)-N-(3-(3,5-Difluorophenyl)-1-((4-methoxyphenyl)(methyl)amino)-1-oxopropan-2-yl)-1-(3-methylbenzyl)-1H-1,2,3-triazole-4-carboxamide], a half-maximal response (EC50) required 9.43 ± 2.31 µM. Besides, the “SI (selectivity index, ratio of CC50/EC50)” value (Table 1) was above 2.04.

With `COC(=O)Cn1cc(-c2cccc(C(=O)N[C@@H](Cc3cc(F)cc(F)c3)C(=O)N(C)c3ccc(OC)cc3)c2)nn1` [II-10l, Methyl (S)-2-(4-(3-((3-(3,5-difluorophenyl)-1-((4-methoxyphenyl)(methyl)amino)-1-oxopropan-2-yl)carbamoyl)phenyl)-1H-1,2,3-triazol-1-yl)acetate], the “anti-HIV-1 activity (in words)” value was “lost anti-HIV-1 activity completely”.

On to `COc1ccc(N(C)C(=O)[C@H](Cc2cc(F)cc(F)c2)NC(=O)c2cn(Cc3ccc(S(N)(=O)=O)cc3)nn2)cc1` [I-8r, (S)-N-(3-(3,5-Difluorophenyl)-1-((4-methoxyphenyl)(methyl)amino)-1-oxopropan-2-yl)-1-(4-sulfamoylbenzyl)-1H-1,2,3-triazole-4-carboxamide], for which the half-maximal effective concentration (EC50) came to 12.3 ± 2.39 µM. Further, the “SI (selectivity index, ratio of CC50/EC50)” value (Table 1) was above 1.39.

`COc1ccc(N(C)C(=O)[C@H](Cc2cc(F)cc(F)c2)NC(=O)c2cn(Cc3ccc(Cl)cc3)nn2)cc1` [I-8f, (S)-1-(4-chlorobenzyl)-N-(3-(3,5-difluorophenyl)-1-((4-methoxyphenyl)(methyl)amino)-1-oxopropan-2-yl)-1H-1,2,3-triazole-4-carboxamide] yielded an EC50 of 8.7 ± 1.65 µM. For the same compound, the “SI (selectivity index, ratio of CC50/EC50)” value (Table 1) is reported as above 2.13.

In the case of `COc1ccc(N(C)C(=O)[C@H](Cc2cc(F)cc(F)c2)NC(=O)c2cn(-c3ccc4c(c3)OCO4)nn2)cc1` [I-8q, (S)-1-(Benzo[d][1,3]dioxol-5-yl)-N-(3-(3,5-difluorophenyl)-1-((4-methoxyphenyl)(methyl)amino)-1-oxopropan-2-yl)-1H-1,2,3-triazole-4-carboxamide], the midpoint of the response, the EC50, lay at 9.15 ± 2.8 µM. Besides, the “SI (selectivity index, ratio of CC50/EC50)” value (Table 1) is reported as above 2.04.

Consider `COc1ccc(N(C)C(=O)[C@H](Cc2ccccc2)NC(=O)c2cccc(-c3cn(Cc4ccc5ccccc5c4)nn3)c2)cc1` [III-15j, (S)-N-(1-((4-Methoxyphenyl)(methyl)amino)-1-oxo-3-phenylpropan-2-yl)-3-(1-(naphthalen-2-ylmethyl)-1H-1,2,3-triazol-4-yl)benzamide], for which the 50% effective concentration (EC50) is above 33.6 µM.

`COc1ccc(N(C)C(=O)[C@H](Cc2cc(F)cc(F)c2)NC(=O)c2cccc(-c3cn(Cc4ccc5ccccc5c4)nn3)c2)cc1` [II-10j, (S)-N-(3-(3,5-Difluorophenyl)-1-((4-methoxyphenyl)(methyl)amino)-1-oxopropan-2-yl)-3-(1-(naphthalen-2-ylmethyl)-1H-1,2,3-triazol-4-yl)benzamide] displayed an EC50 above 31.7 µM.

In the case of `COc1ccc(N(C)C(=O)[C@H](Cc2ccccc2)NC(=O)c2cccc(-c3cn(CCCc4ccccc4)nn3)c2)cc1` [III-15g, (S)-N-(1-((4-Methoxyphenyl)(methyl)amino)-1-oxo-3-phenylpropan-2-yl)-3-(1-(3-phenylpropyl)-1H-1,2,3-triazol-4-yl)benzamide], the half-maximal effective concentration (EC50) was above 34.9 µM.

As to `COc1ccc(N(C)C(=O)[C@H](Cc2cc(F)cc(F)c2)NC(=O)c2cn(Cc3ccc(C)cc3)nn2)cc1` [I-8c, (S)-N-(3-(3,5-Difluorophenyl)-1-((4-methoxyphenyl)(methyl)amino)-1-oxopropan-2-yl)-1-(4-methylbenzyl)-1H-1,2,3-triazole-4-carboxamide], a half-maximal response (EC50) required 10.6 ± 3.46 µM. Besides, the “SI (selectivity index, ratio of CC50/EC50)” value (Table 1) is listed as above 1.82.

Turning to `COc1ccc(N(C)C(=O)[C@H](Cc2cc(F)cc(F)c2)NC(=O)c2cccc(-c3cn(CCc4ccsc4)nn3)c2)cc1` [II-10h, (S)-N-(3-(3,5-Difluorophenyl)-1-((4-methoxyphenyl)(methyl)amino)-1-oxopropan-2-yl)-3-(1-(2-(thiophen-3-yl)ethyl)-1H-1,2,3-triazol-4-yl)benzamide], the half-maximal effective concentration (EC50) worked out at 7.48 ± 2.83 µM and the “anti-HIV-1 activity (in words)” value was “exhibited anti-HIV-1 activity at the test concentration”. For the setting “Table 2”, the “SI (selectivity index, ratio of CC50/EC50)” value is listed as above 4.44.

For `COc1ccc(N(C)C(=O)[C@H](Cc2cc(F)cc(F)c2)NC(=O)c2cn(Cc3ccccc3C#N)nn2)cc1` [I-8g, (S)-1-(2-Cyanobenzyl)-N-(3-(3,5-difluorophenyl)-1-((4-methoxyphenyl)(methyl)amino)-1-oxopropan-2-yl)-1H-1,2,3-triazole-4-carboxamide], the EC50 was found to be 9.61 ± 2.07 µM. The “SI (selectivity index, ratio of CC50/EC50)” value (Table 1) is reported as above 1.96.

`COc1ccc(N(C)C(=O)[C@H](Cc2ccccc2)NC(=O)c2cccc(-c3cn(Cc4ccc(S(N)(=O)=O)cc4)nn3)c2)cc1` [III-15f, (S)-N-(1-((4-Methoxyphenyl)(methyl)amino)-1-oxo-3-phenylpropan-2-yl)-3-(1-(4-sulfamoylbenzyl)-1H-1,2,3-triazol-4-yl)benzamide] came in with a 50% effective concentration (EC50) above 32 µM.

Consider `COc1ccc(N(C)C(=O)[C@H](Cc2cc(F)cc(F)c2)NC(=O)c2cn(CS(=O)(=O)c3ccccc3)nn2)cc1` [I-8t, (S)-N-(3-(3,5-Difluorophenyl)-1-((4-methoxyphenyl)(methyl)amino)-1-oxopropan-2-yl)-1-((phenylsulfonyl)methyl)-1H-1,2,3-triazole-4-carboxamide], for which the response was half-maximal at 4.21 ± 0.9 µM (EC50). Moreover, the “SI (selectivity index, ratio of CC50/EC50)” value (Table 1) is reported as above 4.17.

In turn, `COc1ccc(N(C)C(=O)[C@H](Cc2cc(F)cc(F)c2)NC(=O)c2cn(Cc3cccc(Cl)c3)nn2)cc1` [I-8e, (S)-1-(3-Chlorobenzyl)-N-(3-(3,5-difluorophenyl)-1-((4-methoxyphenyl)(methyl)amino)-1-oxopropan-2-yl)-1H-1,2,3-triazole-4-carboxamide] returned an EC50 of 8.33 ± 1.41 µM. Moreover, the “SI (selectivity index, ratio of CC50/EC50)” value (Table 1) is above 2.22.

Take `COc1ccc(N(C)C(=O)[C@H](Cc2cc(F)cc(F)c2)NC(=O)c2cccc(-c3cn(Cc4cccc([N+](=O)[O-])c4)nn3)c2)cc1` [II-10b, (S)-N-(3-(3,5-Difluorophenyl)-1-((4-methoxyphenyl)(methyl)amino)-1-oxopropan-2-yl)-3-(1-(3-nitrobenzyl)-1H-1,2,3-triazol-4-yl)benzamide]: the EC50 was above 35.5 µM.

`COc1ccc(N(C)C(=O)[C@H](Cc2ccccc2)NC(=O)c2cccc(-c3cn(Cc4ccccc4[N+](=O)[O-])nn3)c2)cc1` [III-15a, (S)-N-(1-((4-Methoxyphenyl)(methyl)amino)-1-oxo-3-phenylpropan-2-yl)-3-(1-(2-nitrobenzyl)-1H-1,2,3-triazol-4-yl)benzamide] displayed an EC50 above 33.9 µM.

Turning to `COc1ccc(N(C)C(=O)[C@H](Cc2ccccc2)NC(=O)c2cccc(-c3cn(Cc4ccc(C(N)=O)cc4)nn3)c2)cc1` [III-15d, (S)-3-(1-(4-Carbamoylbenzyl)-1H-1,2,3-triazol-4-yl)-N-(1-((4-methoxyphenyl)(methyl)amino)-1-oxo-3-phenylpropan-2-yl)benzamide], it took 26.2 ± 7.3 µM to reach a half-maximal effect (EC50) and the “anti-HIV-1 activity (in words)” value is “exhibited anti-HIV-1 activity at the test concentration”. Further, the “SI (selectivity index, ratio of CC50/EC50)” value (Table 2) is listed as above 1.30.
